# Assay results: publication PMC11510329, “Molecular Networking, Docking, and Biological Evaluation of Licarin A from Myristica fragrans as a Potential Cancer Chemopreventive Agent” (Molecules, 2024)
# Assays:
# [1] = system: zebrafish (Danio rerio); test: Toxicity assay in zebrafish; details: for morphological changes / developmental abnormalities: tamoxifen 50 μM at 48 h, 1 100 μM at 48 h, 2 100 μM at 24 h
# Experimental: Animals were provided by the Department of Neuroscience at The Ohio State University (OSU) (OSU IACUC-approved animal protocol number 2014A00000006-R1-AR1). Zebrafish embryos were housed in aquaculture water at 28 °C with a 14 h/10 h light/dark cycle. After 24 h post fertilization (hpf), groups of random embryos were exposed to different concentrations (0, 50, or 100 μM, n = 25) for 24 and 48 h. Then, images of the zebrafish were taken using an Axiovert 40 CFL Zeiss microscope and ProgRes C10 plus camera. Morphological changes in zebrafish development were determined and recorded.
# [2] = system: DU-145 prostate cancer cells; test: Cell viability crystal violet assay; assay type: cell-based, Homo sapiens; details: rocaglamide at concentrations higher than 6 μM
# Experimental: The cell viability of DU-145 prostate cancer cells was evaluated after treatment with 1, 2, and the positive control rocaglamide using the protocol from a Phospho-NF-kappaBp65 (S468 + S536) and Total In-Cell ELISA Kit (ab207482) (Abcam Inc., Waltham, MA, USA), after initial PhosphoNF-κBp65 translocation steps (Section 4.11).
# [3] = system: phosphoNF-κBp65 in DU-145 prostate cancer cells; test: PhosphoNF-κBp65 assay (In-Cell ELISA); assay type: cell-based, Homo sapiens
# Experimental: PhosphoNF-κBP65 phosphorylation levels were evaluated using the protocol from an Abcam Phospho-NF-kappaBp65 ([…] + […]) + Total In-Cell ELISA Kit (ab207482) (Abcam Inc., Waltham, MA, USA). The effects of 1, the natural product chemopreventive positive control 2, and a rocaglamide positive control in the PhosphoNF-κBp65 assay activity were measured using a FLUOstar Optima plate reader. DU-145 or Hepa1c1c7 cells (5 × 10^4 cells/well) were seeded in a white 96-well plate and treated (0-150 μM) for 5 h. Afterwards, luminescence was measured using a FLUOstar Optima plate reader.
# [4] = system: Hepa1c1c7 mouse hepatoma cells; test: Cell oxidative stress real-time dose–response assay (ROS, DCFH-DA); assay type: cell-based
# Experimental: A reactive oxygen species (ROS) assay was performed following a previously described procedure. The generated intracellular levels of ROS were measured using the fluorescent probe 2′,7′-dichlorodihydrofluorescein diacetate (DCFH-DA). Hepa1c1c7 mouse hepatoma cells were seeded in a 96-well plate, treated with 1, 2, or the positive control rocaglamide, followed by 5 h incubation at 37 °C with 5% CO2. Subsequently, cells were incubated with H2O2 (1.25 mM) and FeSO4 for 30 min at 37 °C. Later, the fluorescent probe DCFH-DA was added to determine intracellular ROS. Fluorescence was measured using a FLUOstar Optima fluorescence plate reader (BMG Labtech Inc., Durham, NC, USA) at an excitation wavelength of 485 nm and emission wavelength of 530 nm. All treatments performed in triplicate were representative of at least two different experiments.
# [5] = system: DU-145 prostate cancer cells; test: SRB cell cytotoxicity assay; assay type: cell-based, Homo sapiens; details: DU-145 human prostate cancer cells
# Experimental: (§1) The antiproliferative effects of 1, the chemopreventive control 2, and the positive control paclitaxel were measured using a sulforhodamine B (SRB) cytotoxicity assay. Briefly, DU-145 prostate cancer cells (5 × 10^4 cells/well) were seeded in a 96-well plate overnight. Then, the cells were treated at different concentrations ranging from 0 to 150 μM with each test compound for 24, 48, and 72 h (Supplementary Figure S7). After being treated, the cells were incubated with cold trichloroacetic acid (20%, 30 min), washed with tap water, stained with SRB (0.4%, 30 min), and washed subsequently with acetic acid (1%). Finally, the unbound dye was solubilized using 200 μL of Tris-base (10 mM) and the absorbance read at 515 nm using a FLUOstar Optima microplate reader (BMG Labtech Inc., Durham, NC, USA). The percent inhibition was determined by using the formula provided in the prior publication.
# [6] = SRB cell cytotoxicity assay; assay type: cell-based, Homo sapiens; details: human, DU-145 prostate cancer cells; DU-145; Supplementary Figure S7; read-out: cytotoxic concentration in vitro (IC50)
# Experimental: as §1
# [7] = system: HT-29 human colon cancer cells; details: nanomolar range; cited from earlier work
structure (smiles),measurement,setting,value
"C/C=C/c1cc(OC)c2c(c1)[C@H](C)[C@@H](c1ccc(O)c(OC)c1)O2 [compound 1, licarin A]",% survival,"[1]; 48 h exposure, tamoxifen 50 μM, 1 and 2 100 μM, mean ± SEM",100%
same,morphological changes / developmental abnormalities,[1],lack of morphological changes
same,cell viability (crystal violet),[2],"remained alive and proliferated, but in a controlled manner"
same,effective concentration for inducing NF-κB phosphorylation,[3],9.6 nM
same,effective concentration for oxidative control,[4]; Hepa1c1c7,48 nM
same,growth inhibitory activity,[5],did not produce any discernible growth inhibitory activity
same,IC50,[6],100 µM
"O=C(/C=C/c1ccc(O)cc1)c1ccc(O)cc1O [compound 2, Isoliquiritigenin, reference compound]",% of hatching,"[1]; 24 h exposure, tamoxifen 50 μM, 1 and 2 100 μM, mean ± SEM",100%
same,morphological changes / developmental abnormalities,[1],curved spines or shortened tails
same,duration of reduction in cellular stress (time until activity degrades),"[4]; 48 nM, assay duration 60 min",30 min
C/C=C/c1cc(OC)c2c(c1)[C@@H](C)[C@H](c1cc(OC)c(OC)c(OC)c1)O2 [licarin C],cytotoxicity,[7],potently cytotoxic
"COc1ccc([C@@]23Oc4cc(OC)cc(OC)c4[C@]2(O)[C@H](O)[C@H](C(=O)N(C)C)[C@H]3c2ccccc2)cc1 [Rocaglamide, reference compound]",cell viability (crystal violet),[2],maintained the same level of cell viability
